From patent publication US12343335B2, “Pharmaceutical composition for treating multiple sclerosis on basis of AMPK inhibitory function and zinc homeostasis control function” (ZINCURE CORP., priority 2019, dated 2025)

Experiments:
spinal cord of EAE mice [1] = test: Cresyl violet staining of spinal cord of EAE mice (mononuclear cell infiltration); type: in vivo, C57BL/6 female mice; details: spinal cord white matter, day 21 after EAE induction, vs vehicle
Protocol: The present inventors induced experimental autoimmune encephalomyelitis (EAE), an animal model of multiple sclerosis, by subcutaneously injecting Myelin oligodendrocyte glycoprotein 35-55 (MOG35-55) peptide antigen into C57BL/6 female mice (FIG. 1A). For this, MOG35-55 (Ana spec, USA) and Complete freund's adjuvant (CFA) were first prepared, and MOG35-55 (2 mg/ml) was dissolved in Phosphate buffered saline (lx PBS, Sigma), and then the 25 ml of CFA was prepared by dispending 25 ml of incomplete freund's adjuvant (IFA. Sigma) in a 50 ml conical tube. Then, in a fume hood, Mycobacterium tuberculosis H37Ra (100 mg; Difco, USA) was added to the IFA in order to prepare CFA and store it in the refrigerator after vortexing before use. Thereafter, MOG35-55 and CFA containing Mycobacterium tuberculosis H37Ra was mixed in the same amount and injected into both flanks of the mice. And then Pertussis toxin (4 μg/ml, List Biological Laboratories, USA) was injected intraperitoneally on the day of immunization and on the second day after immunization. After the immunization, the mice's body weight and clinical symptoms were measured every day, and the degree of EAE progression was evaluated based on specific clinical symptoms. More details on this are provided below. […]

spinal cord of EAE mice [2] = test: Immunohistochemistry of spinal cord of EAE mice (CD4, CD8, CD20, IgG leakage); type: in vivo, C57BL/6 female mice
Protocol: The present inventors induced experimental autoimmune encephalomyelitis (EAE), an animal model of multiple sclerosis, by subcutaneously injecting Myelin oligodendrocyte glycoprotein 35-55 (MOG35-55) peptide antigen into C57BL/6 female mice (FIG. 1A). For this, MOG35-55 (Ana spec, USA) and Complete freund's adjuvant (CFA) were first prepared, and MOG35-55 (2 mg/ml) was dissolved in Phosphate buffered saline (lx PBS, Sigma), and then the 25 ml of CFA was prepared by dispending 25 ml of incomplete freund's adjuvant (IFA. Sigma) in a 50 ml conical tube. Then, in a fume hood, Mycobacterium tuberculosis H37Ra (100 mg; Difco, USA) was added to the IFA in order to prepare CFA and store it in the refrigerator after vortexing before use. Thereafter, MOG35-55 and CFA containing Mycobacterium tuberculosis H37Ra was mixed in the same amount and injected into both flanks of the mice. And then Pertussis toxin (4 μg/ml, List Biological Laboratories, USA) was injected intraperitoneally on the day of immunization and on the second day after immunization. After the immunization, the mice's body weight and clinical symptoms were measured every day, and the degree of EAE progression was evaluated based on specific clinical symptoms. More details on this are provided below.
On the 21st day after EAE induction, the present inventors anesthetized mice with urethane and then perfused 4% paraformaldehyde into the heart to fix the spinal cord. And then, an immunohistochemistry was performed using anti-CD4, anti-CD8, and anti-CD20 antibodies […]. Cryosections were reacted with 3% hydrogen peroxide at room temperature for 15 minutes to remove endogenous peroxidase, and then primary antibodies, rat anti-CD4 (1:50, BD Bioscience, CA, USA), anti-CD8 (1:50, BD Bioscience) and goat anti-CD20 (1:50, SantaCruz Biotechnology, USA) antibodies were reacted for 15 hours at 4° C. Thereafter, biotinylated anti-rat IgG or anti-goat IgG (1:250, Vector Laboratories, USA) was reacted at room temperature for 2 hours. […]

cultivated neurons = test: Cytosolic zinc level in cultured neurons with FluoZin-3; type: cell-based, mouse; details: neurons exposed to zinc (300 μM) for 15 minutes, measured for 60 min
Protocol: (§1) The mouse cortical neurons used in the present invention were extracted from the brain of a mouse embryo, and cultured in Dulbecco's modified Eagle's medium (DMEM, Gibco, Grand Island, NY, US) supplemented with 5% fetal bovine serum (FBS) and 5% horse serum (HS) under the condition of 95% humidity, 5% CO2 and 37° C. For activation and differentiation of the cells, the cells were grown to a density of 2×10^4 cells in a 24-well tissue culture plate and cultured in MEM medium without FBS and HS before treatment with zinc and compounds.
The present inventors treated FluoZin-3, a substance illuminate fluorescence if it bind to free zinc to cultivated neurons in order to verify the possibility of zinc chelation according to the treatment of 1H10 {(Z)-5-((1H-indol-3-yl)methylene)-2-((3-hydroxyphenyl)amino)thiazol-4(5H)-one} according to an embodiment of the present invention, and then measured cytosolic zinc level in the neurons for 60 min after exposing zinc (300 μM) for 15 minutes and removing the zinc. In addition, 20 μM zinc (ZnCl2) and NewPort Green DCF fluorophore, which emits fluorescence when it bind to zinc, were added to the test tube, and 1H10 of the present invention was treated at various concentrations. Clioquinol, a zinc chelator, and calcium ionophore Phosphorus ionomycin was used as controls. […]

[3] = tested on: mouse cortical neuron culture; test: Intrinsic toxicity in cortical neuron culture, LDH cytotoxicity; type: cell-based; details: 40 μM
Protocol: as §1
Specifically, 40 μM of each of the drugs was treated in a mouse cortical neuron culture, and LDH cytotoxicity was observed after 24 or 48 hours.

neuronal cell death = details: after stroke; Eom J. W. et al., ACS Chem Neurosci. 2019; cited from earlier work

SMILES: O=C1N=C(Nc2cccc(O)c2)S/C1=C\c1c[nH]c2ccccc12 [1H10, (Z)-5-((1H-indol-3-yl)methylene)-2-((3-hydroxyphenyl)amino)thiazol-4(5H)-one]
- mononuclear cell infiltration (spinal cord of EAE mice [1]): significantly inhibited
- IgG staining due to damage of BBB (spinal cord of EAE mice [2]; Sham group (no EAE induction), white or gray matter): not detected
- infiltration of the T and B cells (CD4, CD8, CD20) (spinal cord of EAE mice [2]; spinal cord white matter, after EAE induction, vs vehicle): significantly inhibited
- IgG infiltration (BBB damage) (spinal cord of EAE mice [2]; white and gray matter, 3 weeks after MOG injection): significantly reduced
- increase of intracellular zinc level (FluoZin-3) (cultivated neurons): significantly reduced
- intrinsic toxicity (LDH cytotoxicity) ([3]; after 24 hours of drug treatment): 7.81±2.77%
- intrinsic toxicity (LDH cytotoxicity) ([3]; after 48 hours of drug treatment): 60.72±8.28%
- neuronal cell death caused by zinc toxicity, excitory toxicity and oxidative damage (neuronal cell death): reduced
